Assay results: patent US20090270447A1, “2-Aryl-and 2-Heteroarylthiazolyl Compounds, Methods for Their Preparation and Use Thereof” (Wyeth, priority 2008, published 2009)

Key:
[1] = test system: HCT116 cells (Securin+/+, securin parental cell line HCT116 FB); assay: Growth inhibition of securin parental cells (SRB, 5 days); format: cell-based; conditions: Homo sapiens, HCT-116, 120 h
Experimental: (§1) IC50 analysis was performed for selected fused heterobicyclic 2-aryl or 2-heteroarylthiazolyl compounds that were tested on HCT116 cells and Securin “knock out” cell lines.
(§2) Cell Culture—HCT116 and securin “knock out” cells. HCT116 and securin “knock out” cells (D8 and F3) were grown in RPMI+5% fetal bovine serum and gentamycin. They were maintained in a humidified 37° C. incubator with 5% CO2. Since the securin “knock out” cells have active chromosomal instability, cells were used at a low passage number of 2-13 passages. At or before passage 13 a new vial of cells was thawed and used for the screen. Cell seeding—HCT116 cells and securin “knock out” cells were trypsinized and suspenended in RPMI+5% FBS at a density of 27,000 cells/mL. HCT116 and securin “knock out” cells were seeded separately in wells of a 96-well plate (Falcon Cat # 35-3872) at a cell density of 4000 cells per well. Cells were seeded in 150 μL of RPMI media containing 5% FBS and gentamycin. Cell seeding was performed under aseptic conditions. Cells were allowed to attach and grow overnight in a humidified 37° C. incubator.
(§3) Compound Dilution and Dispensation. A series of stock solutions, 10 mg/ml of 2-aryl- or 2-heteroarylthiazolyl compounds to be tested, were brought to room temperature. The compounds were diluted 1:50 in RPMI+5% FBS (Highest concentration 200 μg/mL). The compounds were then serially diluted 1:3 across a deep-well titration plate resulting in final concentrations in the plate of 200, 66.7, 22.2, 7.4, 2.4, 0.8 0.27, 0.091, 0.03, 0.01, and 0.0034 μg/mL with one well left without a compound. 50 μL of this dilution series was added to the 150 μL of cells to result in a final concentration of compound in with the cells of 50, 16.6, 5.5, 1.8, 0.6, 0.2, 0.068, 0.023, 0.0076, 0.0025, and 0.00084 μg/mL. The dilution and addition of compounds to the plates is performed using a Multimek 96 Robot (Beckman Coulter).
(§4) Incubation and analysis. After dosing, the cells in the 96 well plates were returned to the humidified 37° C. incubator. The compounds remained on the cells for 5 days. After 5 days, the cells were fixed to the plates with the addition of 50 μL of 50% (vol/vol) Trichloro Acetic Acid ([…]). The cells were fixed at 4° C. for 1 hour. The plates were washed 5 times in distilled water and allowed to dry. The cells were stained with 0.4% sulforhodamine B (Sigma) in 1% acetic acid. The cells were stained for 15 minutes at room temperature. The plates were then washed 3 times in 1% acetic acid. The plates were dried and the dye was solubilized in 10 mM Tris at pH 8.0. The plates were read on the Absorbence 560 setting on a Victor^2 V Model 1420 Multilabel HTS counter (Perkin Elmer).
(§5) Analysis of Results—IC50 data. Absorbence data was read off of the Victor and was converted to a percentage of the control (untreated) values. IC50 values were graphed and the point at which a 50% inhibition of the control level was determined. […] If the model was not able to determine an IC50, the IC50 was assigned to the lowest concentration that gives a 50% or greater decrease in absorbence compared to control levels. If the calculated IC50 value for a cell line exceeds the top concentration for the assay (typically 50 μg/mL), the assay was scored as >50.

[2] = test system: securin "knock out" cells F3 (Securin−/−); assay: Growth inhibition of securin knock out cells F3 (SRB, 5 days); format: cell-based; conditions: for IC50: 120 h, securin knock out F3 cells, 5 days, SRB; for Selectivity Ratio F3: IC50 HCT116 / IC50 securin KO F3
Experimental: as §1, §2, §3, §4, §5
(§6) Selectivity Ratio. The Selectivity Ratio is the ratio of IC50s between the parent cell line and the knock out cell line and is always a positive number and is typically an integer.

[3] = test system: securin "knock out" cells D8 (Securin−/−); assay: Growth inhibition of securin knock out cells D8 (SRB, 5 days); format: cell-based; conditions: for IC50: 120 h, securin knock out D8 cells, 5 days, SRB; for Selectivity Ratio D8: IC50 HCT116 / IC50 securin KO D8
Experimental: as §1, §2, §3, §4, §5, §6

[4] = test system: xenografts of a human breast carcinoma cell line (MDA-MB-361); assay: In-vivo activity in tumor xenografts; conditions: days 1 through 20
Experimental: Selected fused heterobicyclic 2-aryl- or 2-heteroarylthiazolyl compounds of formula I were tested for their activity in a securin parental cell line (HCT116 FB) and a securin knockout (KO) cell line. […] The in-vivo activity of selected fused heterobicyclic 2-arylarylthiazolyl compounds of formula I was studied in cells growing as xenografts in athymic (nude) mice. The effect of Examples 5-7 and 10 was studied in xenografts of a human breast carcinoma cell line (MDA-MB-361).
In-vivo Activity in Tumor Xenografts. The effectiveness of Examples 5-7 versus Vincristine at controlling tumor growth was studied and the results are summarized in Table 2 and FIG. 1. The 2-arylthiazolyl compounds were formulated 0.5% Methocel™ (methylcellulose) and 0.4% Tween 80™ (polysorbate-80 and oleic acid) and administered daily orally (PO), by gavage or intraperiotenially (IP) by syringe. Tumor mass [(length×width^2)/2] was determined every 7 days. Inhibition of tumor growth was calculated relative to conventional (vehicle treated) controls.

Row | Structure (SMILES) | IC50 [1] [µM] | IC50 [2] [µM] | Selectivity Ratio F3 [2] | IC50 [3] [µM] | Selectivity Ratio D8 [3] | also measured
1 | CN(C)c1ccc(-c2nc3c(s2)C(O)CNC3)cc1 (racemic) [Example 2, 2-(4-dimethylamino-phenyl)-4,5,6,7-tetrahydro[1,3]thiazolo[4,5-c]pyridin-7-ol] | 86.4 | 1.28 | 68 | 0.931 | 93 | 
2 | OCc1cc(N2CCCC2)ccc1-c1nc2c(s1)C(O)CNC2 (racemic) [Example 10, (7R,7S)-2-(2-hydroxymethyl-4-pyrrolidin-1-yl-phenyl)-4,5,6,7-tetrahydro[1,3]thiazolo[4,5-c]pyridin-7-ol] | 80.6 | 0.0944 | 854 | 0.0808 | 998 | selectivity ratio (IC50 HCT116 FB/IC50 securin KO), in words [3]: high selectivity ratio
3 | CN1Cc2nc(-c3ccc(N(C)C)cc3)sc2C(O)C1 (centres unmarked) [Example 1, 2-(4-dimethylamino-phenyl)-5-methyl-4,5,6,7-tetrahydro[1,3]thiazolo[4,5-c]pyridine-7-ol] | 23.9 | 3.07 | 8 | 2.48 | 10 | 
4 | CN(C)c1ccc(-c2nc3c(s2)[C@H](O)CNC3)cc1 [Example 3, (R)-2-(4-dimethylamino-phenyl)-4,5,6,7-tetrahydro[1,3]thiazolo[4,5-c]pyridin-7-ol] | 66.4 | 0.555 | 120 | 0.395 | 168 | 
5 | CN(C)c1ccc(-c2nc3c(s2)[C@@H](O)CNC3)cc1 [Example 4, (S)-2-(4-dimethylamino-phenyl)-4,5,6,7-tetrahydro[1,3]thiazolo[4,5-c]pyridin-7-ol] | 169 | 3.39 | 50 | 2.19 | 77 | 
6 | OC1CNCc2nc(-c3ccc(N4CCCC4)cc3)sc21 [Example 5, (7R,7S)-2-(4-pyrrolidin-1-yl-phenyl)-4,5,6,7-tetrahydro[1,3]thiazolo[4,5-c]pyridin-7-ol] | 22.8 | 0.93 | 25 | 0.68 | 34 | % T/C Day 7 ([4]; 10 mg/kg/dose PO): 96%; Relative Tumor Growth Day 7 ([4]; 10 mg/kg/dose PO): 1.59; % T/C Day 14 ([4]; 10 mg/kg/dose PO): 78%; Relative Tumor Growth Day 14 ([4]; 10 mg/kg/dose PO): 3.92; % T/C Day 21 ([4]; 10 mg/kg/dose PO): 86%; Relative Tumor Growth Day 21 ([4]; 10 mg/kg/dose PO): 7.86
7 | O[C@@H]1CNCc2nc(-c3ccc(N4CCCC4)cc3)sc21 [Example 6, (7R)-2-(4-pyrrolidin-1-yl-phenyl)-4,5,6,7-tetrahydro[1,3]thiazolo[4,5-c]pyridin-7-ol] | 14.5 | 0.429 | 34 | 0.45 | 32 | S/T = # of Survivors/# of Treated on Day +21 post tumor staging ([4]; 5 mg/kg/dose PO): 9/10; % T/C Day 7 ([4]; 5 mg/kg/dose PO): 88%; Relative Tumor Growth Day 7 ([4]; 5 mg/kg/dose PO): 1.46; % T/C Day 14 ([4]; 5 mg/kg/dose PO): 74%; Relative Tumor Growth Day 14 ([4]; 5 mg/kg/dose PO): 3.72; % T/C Day 21 ([4]; 5 mg/kg/dose PO): 71%; Relative Tumor Growth Day 21 ([4]; 5 mg/kg/dose PO): 6.53; % T/C Day 7 ([4]; 10 mg/kg/dose PO): 106%; Relative Tumor Growth Day 7 ([4]; 10 mg/kg/dose PO): 1.76; % T/C Day 14 ([4]; 10 mg/kg/dose PO): 81%; Relative Tumor Growth Day 14 ([4]; 10 mg/kg/dose PO): 4.06; % T/C Day 21 ([4]; 10 mg/kg/dose PO): 80%; Relative Tumor Growth Day 21 ([4]; 10 mg/kg/dose PO): 7.32
8 | CN(C)c1ccc(-c2nc3c(s2)C(O)CNC3)c(CO)c1 (centres unmarked) [Example 8, 2-(2-hydroxymethyl-4-dimethylamino-phenyl)-4,5,6,7-tetrahydro[1,3]thiazolo[4,5-c]pyridine-7-ol] | 100 | 0.107 | 936 | 0.0989 | 1011 | 
9 | COC(=O)c1cc(N(C)C)ccc1-c1nc2c(s1)C(O)CNC2 (centres unmarked) [Example 9, methyl 5-(dimethylamino)-2-(7-hydroxy-4,5,6,7-tetrahydro[1,3]thiazolo[4,5-c]pyridin-2-yl)benzoate] | 100 | 0.67 | 149 | 0.53 | 189 | 
10 | OCc1cc(N2CCCC2)ccc1-c1nc2c(s1)[C@H](O)CNC2 [Example 11, (7R)-2-(2-hydroxymethyl-4-pyrrolidin-1-yl-phenyl)-4,5,6,7-tetrahydro[1,3]thiazolo[4,5-c]pyridin-7-ol] | 91.4 | 0.0483 | 1892 | 0.0406 | 2251 | 
11 | COC(=O)c1cc(N2CCCC2)ccc1-c1nc2c(s1)C(O)CNC2 (centres unmarked) [Example 13, Methyl 5-(4-pyrrolidin-1-yl)-2-(7-hydroxy-4,5,6,7-tetrahydro[1,3]thiazolo[4,5-c]pyridin-2-yl)benzoate] | 59.2 | 0.516 | 115 | 0.342 | 173 | 
12 | Nc1cc(N2CCCC2)ccc1-c1nc2c(s1)C(O)CNC2 (centres unmarked) [Example 14, 2-(2-amino-4-pyrrolidin-1-yl-phenyl)-4,5,6,7-tetrahydro[1,3]thiazolo[4,5-c]pyridin-7-ol] | 48.1 | 0.0486 | 990 | 0.0379 | 1269 | 
13 | O=[N+]([O-])c1cc(N2CCCC2)ccc1-c1nc2c(s1)C(O)CNC2 (centres unmarked) [Example 15, 2-(2-nitro-4-pyrrolidin-1-yl-phenyl)-4,5,6,7-tetrahydro[1,3]thiazolo[4,5-c]pyridin-7-ol] | 28.4 | 4.6 | 6 | 2.95 | 10 | 
14 | CN(C)c1ccc(-c2nc3c(s2)C(O)COC3)cc1Br (centres unmarked) [Example 16, 2-[3-bromo-4-(dimethylamino)phenyl]-6,7-dihydro-4H-pyrano[3,4-d][1,3]thiazol-7-ol] | 41.6 | 15.2 | 3 | 14.3 | 3 | 
15 | CN(C)c1ccc(-c2nc3c(s2)C(O)COC3)cc1 (centres unmarked) [Example 17, 2-[4-(dimethylamino)phenyl]-6,7-dihydro-4H-pyrano[3,4-d][1,3]thiazol-7-ol] | 51.1 | 1.53 | 33 | 1.12 | 46 | 
